From publication PMC2860877 (Bioorganic & medicinal chemistry, 2008)

Assays:
[1] = target: T1, epitope-tagged (histidine6) catalytic domain of human recombinant Cdc25B (Homo sapiens, UniProt P30305); assay: Cdc25B phosphatase inhibition, catalytic domain; assay type: biochemical; conditions: for selectivity for Cdc25B as opposed to MKP-1 and MKP-3, in words: comparison of Cdc25B, MKP-1, MKP-3 assays; for Cdc25B activity in words: structure-activity discussion
T1 sequence (P30305 275-539 isoform P30305-3): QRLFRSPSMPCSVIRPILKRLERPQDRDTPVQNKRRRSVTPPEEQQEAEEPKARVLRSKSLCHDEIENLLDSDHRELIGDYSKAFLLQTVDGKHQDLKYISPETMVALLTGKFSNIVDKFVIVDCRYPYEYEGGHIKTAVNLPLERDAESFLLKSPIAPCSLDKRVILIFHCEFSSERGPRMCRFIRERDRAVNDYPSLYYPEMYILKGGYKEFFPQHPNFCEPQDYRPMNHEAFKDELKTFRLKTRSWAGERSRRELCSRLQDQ

[2] = target: T2, epitope-tagged (histidine6) recombinant MKP-1 (Homo sapiens, UniProt P28562); assay: MKP-1 phosphatase inhibition; assay type: biochemical
T2 sequence (P28562 1-367): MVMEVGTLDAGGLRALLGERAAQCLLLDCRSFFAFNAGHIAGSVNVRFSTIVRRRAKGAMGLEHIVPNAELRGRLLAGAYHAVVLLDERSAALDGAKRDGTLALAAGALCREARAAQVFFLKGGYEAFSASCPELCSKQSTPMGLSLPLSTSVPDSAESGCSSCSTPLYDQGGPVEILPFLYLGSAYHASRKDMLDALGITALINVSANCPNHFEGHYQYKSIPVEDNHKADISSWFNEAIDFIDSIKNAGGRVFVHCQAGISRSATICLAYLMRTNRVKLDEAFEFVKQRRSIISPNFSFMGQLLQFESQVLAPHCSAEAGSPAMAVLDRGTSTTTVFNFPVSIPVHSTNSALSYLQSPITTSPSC

| selectivity for Cdc25B as opposed to MKP-1 and MKP-3, in words [1] | SMILES | IC50 [2] [µM] | Cdc25B activity in words [1] |
| --- | --- | --- | --- |
| relatively non-selective | CCOC1=CC(=O)C(=O)c2ccccc21 [Compound 20] | – | – |
| moderately selective for Cdc25B | O=C1C2=C(C(=O)c3ccccc31)S(=O)(=O)CCN2 [Compound 16] | – | – |
| moderately selective for Cdc25B | O=C1C2=C(C(=O)c3c(O)cccc31)S(=O)(=O)CCN2 [Compound 17] | – | – |

The remaining lines, values behind:

| SMILES | selectivity for Cdc25B as opposed to MKP-1 and MKP-3, in words [1] | IC50 [2] [µM] | Cdc25B activity in words [1] |
| --- | --- | --- | --- |
| O=C1C=CC(=O)C=C1 [Compound 10, 1,4-benzoquinone] | – | > 50 | complete loss of enzyme activity |
| O=C1C=C(NCCO)C(=O)c2ccccc21 [Compound 18] | – | > 50 | complete loss of activity |
| O=C1c2ccccc2C(=O)c2ccccc21 [Compound 12, 9,10-anthraquinone] | – | > 50 | – |
| O=C1c2cc3c(cc2C(=O)C2OC12)CCCC3 (centres unmarked) [Compound 8] | – | > 50 | – |
| CC1=C(NCCO)C(=O)c2ccccc2C1=O [Compound 19] | – | > 50 | complete loss of activity |
